# Source: ChEMBL document CHEMBL4825743, “Novel Substituted Heterocyclic and Heteroaryl Compounds for Treating Huntington's Disease” (ACS Med Chem Lett, 2021)
# Target: Huntingtin (Homo sapiens, UniProt P42858)
# Assay: Inhibition of Huntingtin protein (unknown origin) incubated for overnight in presence of MW1/MAB2166 monoclonal antibody by ELISA-based MSD electrochemiluminescence assay
# Huntingtin, sequence (P42858 whole entry): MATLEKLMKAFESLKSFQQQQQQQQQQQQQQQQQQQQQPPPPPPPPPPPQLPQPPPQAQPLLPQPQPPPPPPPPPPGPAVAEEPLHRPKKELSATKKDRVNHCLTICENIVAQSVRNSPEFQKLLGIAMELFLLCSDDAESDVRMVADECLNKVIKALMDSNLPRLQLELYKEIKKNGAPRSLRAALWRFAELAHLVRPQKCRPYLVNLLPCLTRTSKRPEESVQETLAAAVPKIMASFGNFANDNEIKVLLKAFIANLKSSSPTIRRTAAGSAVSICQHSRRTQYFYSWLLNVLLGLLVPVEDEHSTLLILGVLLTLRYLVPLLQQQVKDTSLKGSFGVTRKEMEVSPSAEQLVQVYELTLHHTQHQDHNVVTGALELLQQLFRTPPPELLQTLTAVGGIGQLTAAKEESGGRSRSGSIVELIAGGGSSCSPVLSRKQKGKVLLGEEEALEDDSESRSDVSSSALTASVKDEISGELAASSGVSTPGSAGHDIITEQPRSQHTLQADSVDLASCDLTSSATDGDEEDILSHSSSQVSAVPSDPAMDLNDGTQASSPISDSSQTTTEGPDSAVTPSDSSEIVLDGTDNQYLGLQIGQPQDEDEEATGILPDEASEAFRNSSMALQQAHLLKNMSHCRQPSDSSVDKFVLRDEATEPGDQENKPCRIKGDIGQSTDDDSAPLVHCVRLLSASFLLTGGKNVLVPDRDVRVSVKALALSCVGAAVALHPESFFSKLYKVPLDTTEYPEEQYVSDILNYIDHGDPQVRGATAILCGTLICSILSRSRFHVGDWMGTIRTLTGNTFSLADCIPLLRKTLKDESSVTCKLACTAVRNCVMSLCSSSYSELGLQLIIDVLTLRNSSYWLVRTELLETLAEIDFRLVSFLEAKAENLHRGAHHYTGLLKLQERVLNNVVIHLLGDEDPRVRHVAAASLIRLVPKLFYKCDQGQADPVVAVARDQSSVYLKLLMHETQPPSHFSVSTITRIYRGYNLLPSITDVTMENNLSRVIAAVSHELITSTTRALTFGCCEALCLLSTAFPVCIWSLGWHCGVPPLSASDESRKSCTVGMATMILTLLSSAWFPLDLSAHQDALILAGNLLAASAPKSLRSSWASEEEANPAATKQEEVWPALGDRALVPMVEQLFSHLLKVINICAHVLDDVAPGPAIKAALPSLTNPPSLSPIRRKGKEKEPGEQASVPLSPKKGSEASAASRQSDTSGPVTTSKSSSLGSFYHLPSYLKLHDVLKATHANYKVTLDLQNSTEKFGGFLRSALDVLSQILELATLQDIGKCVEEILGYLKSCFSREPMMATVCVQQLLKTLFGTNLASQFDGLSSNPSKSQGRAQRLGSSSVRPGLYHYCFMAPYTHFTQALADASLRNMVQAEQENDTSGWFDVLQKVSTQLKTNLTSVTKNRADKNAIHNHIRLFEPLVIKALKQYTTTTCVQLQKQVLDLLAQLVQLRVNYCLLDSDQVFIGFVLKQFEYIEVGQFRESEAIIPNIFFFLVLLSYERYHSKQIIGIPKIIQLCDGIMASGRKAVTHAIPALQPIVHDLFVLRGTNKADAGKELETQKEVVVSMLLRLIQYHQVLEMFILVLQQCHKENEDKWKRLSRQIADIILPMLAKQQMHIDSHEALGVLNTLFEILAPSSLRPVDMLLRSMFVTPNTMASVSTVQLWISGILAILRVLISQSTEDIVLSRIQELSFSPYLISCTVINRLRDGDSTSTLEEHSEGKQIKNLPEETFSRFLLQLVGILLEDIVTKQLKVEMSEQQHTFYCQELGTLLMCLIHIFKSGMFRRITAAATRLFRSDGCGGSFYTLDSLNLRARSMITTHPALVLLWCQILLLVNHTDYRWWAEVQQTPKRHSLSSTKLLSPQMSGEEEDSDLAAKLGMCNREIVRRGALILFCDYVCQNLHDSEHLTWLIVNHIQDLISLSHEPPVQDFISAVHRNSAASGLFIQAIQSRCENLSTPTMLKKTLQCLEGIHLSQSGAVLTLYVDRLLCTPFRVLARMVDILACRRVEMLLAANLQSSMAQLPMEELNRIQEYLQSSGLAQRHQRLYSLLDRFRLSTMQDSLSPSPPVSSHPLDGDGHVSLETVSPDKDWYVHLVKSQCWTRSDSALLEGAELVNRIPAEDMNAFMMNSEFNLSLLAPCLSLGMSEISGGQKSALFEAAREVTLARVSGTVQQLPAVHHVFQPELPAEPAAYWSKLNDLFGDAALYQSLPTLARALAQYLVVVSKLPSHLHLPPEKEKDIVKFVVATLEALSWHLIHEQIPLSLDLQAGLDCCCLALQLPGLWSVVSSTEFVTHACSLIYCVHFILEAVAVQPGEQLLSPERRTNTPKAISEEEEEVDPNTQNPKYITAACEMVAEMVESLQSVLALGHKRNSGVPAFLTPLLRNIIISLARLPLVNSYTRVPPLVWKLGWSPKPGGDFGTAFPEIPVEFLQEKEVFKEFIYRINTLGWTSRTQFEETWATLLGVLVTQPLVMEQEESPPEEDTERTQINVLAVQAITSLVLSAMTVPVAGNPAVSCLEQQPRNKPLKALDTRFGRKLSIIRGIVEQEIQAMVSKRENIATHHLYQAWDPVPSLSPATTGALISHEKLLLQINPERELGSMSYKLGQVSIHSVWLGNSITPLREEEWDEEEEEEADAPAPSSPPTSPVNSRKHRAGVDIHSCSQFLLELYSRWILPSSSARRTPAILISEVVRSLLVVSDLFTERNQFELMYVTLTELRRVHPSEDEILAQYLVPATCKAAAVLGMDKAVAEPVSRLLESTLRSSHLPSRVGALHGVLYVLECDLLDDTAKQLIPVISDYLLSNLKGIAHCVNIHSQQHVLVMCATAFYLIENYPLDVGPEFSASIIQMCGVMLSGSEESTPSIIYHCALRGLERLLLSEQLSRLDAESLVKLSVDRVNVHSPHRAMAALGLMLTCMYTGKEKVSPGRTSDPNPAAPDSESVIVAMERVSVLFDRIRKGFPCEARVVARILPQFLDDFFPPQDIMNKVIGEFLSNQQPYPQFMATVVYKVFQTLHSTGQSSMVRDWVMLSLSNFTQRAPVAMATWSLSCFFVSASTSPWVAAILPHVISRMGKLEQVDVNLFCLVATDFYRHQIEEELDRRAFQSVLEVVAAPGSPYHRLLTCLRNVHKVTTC
row,SMILES,IC50 [µM]
1,COc1ncnc(-c2ccc(-c3cc4nnn(C5CC(C)(C)NC(C)(C)C5)c4nn3)c(O)c2)n1,≤ 0.1
2,CC1(C)C=C(c2csc3cc(-c4ccc(-c5cn[nH]c5)cc4O)nnc23)CC(C)(C)N1,≤ 0.1
3,CC1(C)CC(n2nnc3cc(-c4ccc(-c5nncs5)cc4O)nnc32)CC(C)(C)N1,≤ 0.1

# Other lines, results leading:
row,IC50 [µM],SMILES
1,≤ 0.1,CC1(C)CC(n2nnc3cc(-c4ccc(-c5ncco5)cc4O)nnc32)CC(C)(C)N1
2,≤ 0.1,CC1(C)CC(n2nnc3cc(-c4ccc(-c5nccs5)cc4O)nnc32)CC(C)(C)N1
3,≤ 0.1,CC1(C)CC(n2nnc3cc(-c4ccc(-n5nccn5)cc4O)nnc32)CC(C)(C)N1 [VOTOPLAM]
